Source: US11986493B2 (University of Pittsburgh—Of the Commonwealth System of …, priority 2013, dated 2024)

Tested on: subjects with pulmonary hypertension (WHO group I PAH, WHO group III PH)
Assay: Right heart catheterization: right heart/pulmonary artery hemodynamics, thermodilution cardiac output, PVR and SVR after inhaled NO and nebulized nitrite
Assay type: in vivo, human
Method: A total of 6 subjects with a confirmed diagnosis of pulmonary hypertension and meeting all inclusion/exclusion criteria were enrolled in the study which entailed a single right heart catheterization. The study population consisted of subjects with WHO group I PAH (n=3) and subjects with WHO group III PH (n=3) which received the dose escalation paradigm:
During the study right heart/pulmonary artery hemodynamics were measured as well as noninvasive systemic blood pressure monitoring and simultaneous RV echocardiography. Subjects were tested for the changes in pulmonary vascular resistance (PVR) measured by right heart catheterization and using thermodilution cardiac output measurement at time zero, at times 15, 30 and 45 minutes after completion of each nebulization dose.
Following right heart catheterization, the patient was stabilized for 20 minutes. Baseline blood collections and hemodynamic measurements were performed, followed by treatment with 40 ppm inhaled NO gas for […] with repeat hemodynamic measurements performed.
After stopping inhaled NO gas, a single dose of sildenafil was given if patients were on background sildenafil therapy at previously prescribed doses. 45-minutes after sildenafil dose baseline hemodynamics were performed.
Subjects were monitored carefully during and after the study treatment.
The study was conducted at the 3rd FL Catheterization Laboratory at Presbyterian Hospital of the University of Pittsburgh Medical Center (UPMC). Baseline vasoreactivity was recorded after Inhaled NO at 40 ppm for […]. […] Subjects were instructed to breathe as calmly, and deeply as possible until no more mist was formed in the nebulizer chamber. Subjects were also instructed to hold their breath for approximately 10 seconds after inhalation to allow the study drug to reach deep into the lungs.

[1] = Patient 1, nitrite 45 mg inhaled, 15 min
[2] = Patient 1, nitrite 45 mg inhaled, 30 min
[3] = Patient 1, nitrite 45 mg inhaled, 45 min
[4] = Patient 1, nitrite 45 mg inhaled, 60 min
[5] = Patient 1, nitrite 90 mg inhaled, 15 min
[6] = Patient 1, nitrite 90 mg inhaled, 30 min
[7] = Patient 1, nitrite 90 mg inhaled, 45 min
[8] = Patient 1, nitrite 90 mg inhaled, 60 min
[9] = Patient 2, nitrite 45 mg inhaled, 15 min
[10] = Patient 2, nitrite 45 mg inhaled, 30 min
[11] = Patient 2, nitrite 45 mg inhaled, 45 min
[12] = Patient 2, nitrite 45 mg inhaled, 60 min
[13] = Patient 2, nitrite 90 mg inhaled, 15 min
[14] = Patient 2, nitrite 90 mg inhaled, 30 min
[15] = Patient 2, nitrite 90 mg inhaled, 45 min
[16] = Patient 2, nitrite 90 mg inhaled, 60 min
[17] = Patient 3, nitrite 45 mg inhaled, 15 min
[18] = Patient 3, nitrite 45 mg inhaled, 30 min
[19] = Patient 3, nitrite 45 mg inhaled, 45 min
[20] = Patient 3, nitrite 45 mg inhaled, 60 min
[21] = Patient 3, nitrite 90 mg inhaled, 15 min
[22] = Patient 3, nitrite 90 mg inhaled, 30 min
[23] = Patient 3, nitrite 90 mg inhaled, 45 min
[24] = Patient 3, nitrite 90 mg inhaled, 60 min

O=NO [nitrite, sodium nitrite]
CI [1]: 2.47 | CO [1]: 4.77 | PA sat [1]: 66 | PAD [1]: 35 | PAS [1]: 93 | PCWP [1]: 11 | PVR [1]: 9.09 | PVR/SVR [1]: 0.58 | RA [1]: 9 | RVD [1]: 8 | RVS [1]: 98 | SVR [1]: 15.66 | TPR [1]: 11.39 | mPAP [1]: 54.34 | CI [2]: 2.65 | CO [2]: 5.12 | PA sat [2]: 68 | PAD [2]: 36 | PAS [2]: 98 | PCWP [2]: 7 | PVR [2]: 9.70 | PVR/SVR [2]: 0.64 | RA [2]: 10 | RVD [2]: 10 | RVS [2]: 94 | SVR [2]: 15.24 | TPR [2]: 11.07 | mPAP [2]: 56.67 | CI [3]: 2.51 | CO [3]: 4.85 | PA sat [3]: 63 | PAD [3]: 38 | PAS [3]: 100 | PCWP [3]: 9 | PVR [3]: 10.24 | PVR/SVR [3]: 0.66 | RA [3]: 9 | RVD [3]: 9 | RVS [3]: 95 | SVR [3]: 15.53 | TPR [3]: 12.10 | mPAP [3]: 58.67 | CI [4]: 3.11 | CO [4]: 6.01 | PA sat [4]: 62 | PAD [4]: 36 | PAS [4]: 98 | PCWP [4]: 7 | PVR [4]: 8.27 | PVR/SVR [4]: 0.63 | RA [4]: 9 | RVD [4]: 9 | RVS [4]: 94 | SVR [4]: 13.15 | TPR [4]: 9.43 | mPAP [4]: 56.67 | CI [5]: 2.93 | CO [5]: 5.65 | PA sat [5]: 64 | PAD [5]: 32 | PAS [5]: 92 | PCWP [5]: 2 | PVR [5]: 8.85 | PVR/SVR [5]: 0.68 | RA [5]: 3 | RVD [5]: 3 | RVS [5]: 96 | SVR [5]: 13.10 | TPR [5]: 9.20 | mPAP [5]: 52.01 | CI [6]: 2.99 | CO [6]: 5.77 | PA sat [6]: 61 | PAD [6]: 32 | PAS [6]: 92 | PCWP [6]: 2 | PVR [6]: 8.67 | PVR/SVR [6]: 0.68 | RA [6]: 4 | RVD [6]: 3 | RVS [6]: 91 | SVR [6]: 12.83 | TPR [6]: 9.01 | mPAP [6]: 52.01 | CI [7]: 3.22 | CO [7]: 6.22 | PA sat [7]: 62 | PAD [7]: 31 | PAS [7]: 90 | PCWP [7]: 2 | PVR [7]: 7.83 | PVR/SVR [7]: 0.67 | RA [7]: 3 | RVD [7]: 3 | RVS [7]: 92 | SVR [7]: 11.63 | TPR [7]: 8.15 | mPAP [7]: 50.67 | CI [8]: 3.14 | CO [8]: 6.06 | PA sat [8]: 62 | PAD [8]: 30 | PAS [8]: 90 | PCWP [8]: 3 | PVR [8]: 7.76 | PVR/SVR [8]: 0.61 | RA [8]: 3 | RVD [8]: 2 | RVS [8]: 88 | SVR [8]: 12.65 | TPR [8]: 8.25 | mPAP [8]: 50.01 | CI [9]: 3.67 | CO [9]: 7.08 | PAD [9]: 19 | PAS [9]: 57 | PCWP [9]: 8 | PVR [9]: 3.34 | PVR/SVR [9]: 0.25 | RA [9]: 6 | SVR [9]: 13.28 | TPR [9]: 4.47 | mPAP [9]: 31.67 | CI [10]: 3.88 | CO [10]: 7.48 | PAD [10]: 22 | PAS [10]: 64 | PCWP [10]: 9 | PVR [10]: 3.61 | PVR/SVR [10]: 0.30 | RA [10]: 6 | SVR [10]: 11.99 | TPR [10]: 4.81 | mPAP [10]: 36.01 | CI [11]: 3.93 | CO [11]: 7.58 | PAD [11]: 21 | PAS [11]: 62 | PCWP [11]: 8 | PVR [11]: 3.52 | PVR/SVR [11]: 0.29 | RA [11]: 3 | SVR [11]: 12.23 | TPR [11]: 4.57 | mPAP [11]: 34.67 | CI [12]: 3.89 | CO [12]: 7.5 | PAD [12]: 21 | PAS [12]: 64 | PCWP [12]: 8 | PVR [12]: 3.65 | PVR/SVR [12]: 0.32 | RA [12]: 4 | SVR [12]: 11.38 | TPR [12]: 4.71 | mPAP [12]: 35.34 | CI [13]: 3.81 | CO [13]: 7.35 | PAD [13]: 20 | PAS [13]: 57 | PCWP [13]: 8 | PVR [13]: 3.31 | PVR/SVR [13]: 0.25 | RA [13]: 2 | SVR [13]: 13.06 | TPR [13]: 4.40 | mPAP [13]: 32.34 | CI [14]: 4.60 | CO [14]: 8.87 | PAD [14]: 22 | PAS [14]: 60 | PCWP [14]: 6 | PVR [14]: 3.23 | PVR/SVR [14]: 0.31 | RA [14]: 3 | SVR [14]: 10.41 | TPR [14]: 3.91 | mPAP [14]: 34.67 | CI [15]: 4.19 | CO [15]: 8.09 | PAD [15]: 21 | PAS [15]: 62 | PCWP [15]: 7 | PVR [15]: 3.42 | PVR/SVR [15]: 0.28 | RA [15]: 3 | SVR [15]: 12.12 | TPR [15]: 4.29 | mPAP [15]: 34.67 | CI [16]: 4.56 | CO [16]: 8.8 | PAD [16]: 22 | PAS [16]: 68 | PCWP [16]: 6 | PVR [16]: 3.56 | PVR/SVR [16]: 0.33 | RA [16]: 5 | RVD [16]: 3 | RVS [16]: 62 | SVR [16]: 10.76 | TPR [16]: 4.24 | mPAP [16]: 37.34 | CI [17]: 3.19 | CO [17]: 6.63 | PAD [17]: 19 | PAS [17]: 80 | PCWP [17]: 14 | PVR [17]: 3.82 | PVR/SVR [17]: 0.45 | RA [17]: 12 | SVR [17]: 8.55 | TPR [17]: 5.93 | mPAP [17]: 39.34 | CI [18]: 3.08 | CO [18]: 6.4 | PAD [18]: 20 | PAS [18]: 70 | PCWP [18]: 15 | PVR [18]: 3.39 | PVR/SVR [18]: 0.37 | RA [18]: 10 | SVR [18]: 9.22 | TPR [18]: 5.73 | mPAP [18]: 35.67 | CI [19]: 3.17 | CO [19]: 6.6 | PAD [19]: 20 | PAS [19]: 74 | PCWP [19]: 14 | PVR [19]: 3.64 | PVR/SVR [19]: 0.42 | RA [19]: 13 | SVR [19]: 8.64 | TPR [19]: 5.76 | mPAP [19]: 38.01 | CI [20]: 3.07 | CO [20]: 6.39 | PAD [20]: 20 | PAS [20]: 70 | PCWP [20]: 14 | PVR [20]: 3.55 | PVR/SVR [20]: 0.40 | RA [20]: 13 | SVR [20]: 8.92 | TPR [20]: 5.74 | mPAP [20]: 36.67 | CI [21]: 3.69 | CO [21]: 7.67 | PAD [21]: 19 | PAS [21]: 69 | PCWP [21]: 13 | PVR [21]: 2.96 | PVR/SVR [21]: 0.40 | RA [21]: 12 | SVR [21]: 7.48 | TPR [21]: 4.65 | mPAP [21]: 35.67 | CI [22]: 2.41 | CO [22]: 5.01 | PAD [22]: 17 | PAS [22]: 73 | PCWP [22]: 11 | PVR [22]: 4.92 | PVR/SVR [22]: 0.39 | RA [22]: 10 | SVR [22]: 12.51 | TPR [22]: 7.12 | mPAP [22]: 35.67 | CI [23]: 2.94 | CO [23]: 6.11 | PAD [23]: 19 | PAS [23]: 71 | PCWP [23]: 12 | PVR [23]: 3.98 | PVR/SVR [23]: 0.42 | RA [23]: 11 | SVR [23]: 9.55 | TPR [23]: 5.95 | mPAP [23]: 36.34 | CI [24]: 3.34 | CO [24]: 6.95 | PAD [24]: 20 | PAS [24]: 72 | PCWP [24]: 14 | PVR [24]: 3.36 | PVR/SVR [24]: 0.36 | RA [24]: 9 | RVD [24]: 8 | RVS [24]: 71 | SVR [24]: 9.31 | TPR [24]: 5.37
